pIC50: −log10 of the molar value. Like-named read-outs stand apart in the source and are kept apart here.
What was measured:
[1] = target: T1, Human Recombinant Gelatinase B (MMP-9) (Homo sapiens, UniProt P14780); assay: P218 quenched fluorescence assay for MMP inhibition: MMP-9; type: biochemical; details: P218 substrate 6 μM, pH 6.5, 25 min at 37° C.; for pIC50: read-out: MMP-9 Fluorogenic IC-50; for MMP-9 Fluorogenic, I (percent inhibition): inhibitor concentration not given
T1 construct: made in house; host or cells: baculovirus protein expression system
T1 sequence (P14780 107-707 limits assumed): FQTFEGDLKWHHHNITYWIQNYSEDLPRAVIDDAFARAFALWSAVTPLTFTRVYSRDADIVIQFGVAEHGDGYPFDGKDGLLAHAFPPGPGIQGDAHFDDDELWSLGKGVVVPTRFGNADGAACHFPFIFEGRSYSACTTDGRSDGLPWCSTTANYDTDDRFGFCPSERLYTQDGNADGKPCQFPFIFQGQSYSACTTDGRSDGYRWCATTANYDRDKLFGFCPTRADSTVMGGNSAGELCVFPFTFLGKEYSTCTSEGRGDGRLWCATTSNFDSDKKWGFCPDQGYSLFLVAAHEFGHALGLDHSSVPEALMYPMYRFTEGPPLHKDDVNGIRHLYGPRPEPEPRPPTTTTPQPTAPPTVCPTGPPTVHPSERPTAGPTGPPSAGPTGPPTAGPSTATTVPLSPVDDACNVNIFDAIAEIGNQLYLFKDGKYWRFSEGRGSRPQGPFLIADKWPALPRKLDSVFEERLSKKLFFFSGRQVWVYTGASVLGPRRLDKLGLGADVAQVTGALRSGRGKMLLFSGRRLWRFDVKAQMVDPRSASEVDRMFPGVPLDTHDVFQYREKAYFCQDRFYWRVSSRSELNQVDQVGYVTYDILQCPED
Text: (§1) P218 Quenched Fluorescence Assay for MMP Inhibition:
(§2) The P218 quenched fluorescence assay (Microfluorometric Profiling Assay) is a modification of that originally described by Knight, et al., FEBS Lett. 296, 263, 1992 for a related substance and a variety of matrix metalloproteinases (MMPs) in cuvettes. The assay was run with each invention compound and the three MMPs, MMP-3, MMP-9 and MMP-2, analyzed in parallel, adapted as follows for a 96-well microtiter plate and a Hamilton AT® workstation.
(§3) P218 Fluorogenic Substrate:
(§4) P218 is a synthetic substrate containing a 4-acetyl-7-methoxycoumarin (MCA) group in the N-terminal position and a 3-[2,4-dinitrophenyl]-L-2,3-diaminopropionyl (DPA) group internally. This is a modification of a peptide reported by Knight (1992) that was used as a substrate for matrix metalloproteinases. Once the P218 peptide is cleaved (putative clip site at the Ala-Leu bond), the fluorescence of the MCA group can be detected on a fluorometer with excitation at 328 nm and emission at 393 nm. P218 is currently being produced BACHEM exclusively for Bayer. P218 has the structure:
(§5) H-MCA-Pro-Lys-Pro-Leu-Ala-Leu-DPA-Ala-Arg-NH2 (MW 1332.2)
Preparation of Human Recombinant Pro-Gelatinase B (MMP-9):
Recombinant Human Pro-MMP-9: Human pro-gelatinase B (pro-MMP-9) derived from U937 cDNA as described by Wilhelm, et al. J. Biol. Chem. 264, 17213, 1989 was expressed as the full-length form using a baculovirus protein expression system. The pro-enzyme was purified using methods previously described by Hibbs, et al. J. Biol. Chem. 260, 2493, 1984.
Activation of Pro-MMP-9: Pro-MMP-2 20 μg/ml in 50 mM Tris at pH 7.4, 10 mM CaCl2, 150 mM NaCl, and 0.005% Brij-35 (MMP-9 activation buffer) was activated by incubation with 0.5 mM p-aminophenylmercuric acetate (APMA) for 3.5 h at 37° C. The enzyme was dialyzed against the same buffer to revmove the APMA.
(§6) Hamiltion Microlab AT Plus: The MMP-Profiling Assay is performed robotically on a Hamilton MicroLab AT Plus®. The Hamilton is programmed to: (1) serially dilute up to 11 potential inhibitors automatically from a 2.5 mM stock in 100% DMSO; (2) distribute substrate followed by inhibitor into a 96 well Cytofluor plate; and (3) add a single enzyme to the plate with mixing to start the reaction. Subsequent plates for each additional enzyme are prepared automatically by beginning the program at the substrate addition point, remixing the diluted inhibitors and beginning the reaction by addition of enzyme. In this way, all MMP assays were done using the same inhibitor dilutions.
(§7) Millipore Cytofluor II. Following incubation, the plate was read on a Cytofluor II fluorometric plate reader with excitation at 340 nm and emission at 395 nm with the gain set at 80.
(§8) Microfluorometric Reaction Buffer (MRB): Dilution of test compounds, enzymes, and P218 substrate for the microfluorometric assay were made in microfluorometric reaction buffer consisting of 50 mM 2-(N-morpholino)ethanesulfonic acid (MES) at pH 6.5 with 10 mM CaCl2, 150 mM NaCl, 0.005% Brij-35 and 1% DMSO.
(§9) MMP Microfluorometric Profiling Assay. The assay is done with a final substrate concentration of 6 μM P218 and approximately 0.5 to 0.8 nM MMP with variable drug concentrations. The Hamilton is programmed to serially dilute up to 11 compounds from a 2.5 mM stock (100% DMSO) to 10x the final compounds concentrations in the assay. Initially, the instrument delivers various amounts of microfluoromentric reaction buffer (MRB) to a 96 tube rack of 1 ml Marsh dilution tubes. The instrument then picks up 20 μl of inhibitor (2.5 mM) from the sample rack and mixes it with a buffer in row A of the Marsh rack, resulting in a 50 μM drug concentration. The inhibitors are then serially diluted to 10, 5, 1, 0.2, 0.05 and 0.01 μM. […]

[2] = target: T2, Recombinant Human CHO Stromelysin (MMP-3) (Homo sapiens, UniProt P08254); assay: P218 quenched fluorescence assay for MMP inhibition: MMP-3; type: biochemical; details: P218 substrate 6 μM, pH 6.5, 25 min at 37° C.; read-out: MMP-3 Fluorogenic IC-50
T2 construct: made in house; host or cells: CHO cells (as described by Housley et al., J. Biol. Chem. 268, 4481, 1993)
T2 sequence (P08254 100-477): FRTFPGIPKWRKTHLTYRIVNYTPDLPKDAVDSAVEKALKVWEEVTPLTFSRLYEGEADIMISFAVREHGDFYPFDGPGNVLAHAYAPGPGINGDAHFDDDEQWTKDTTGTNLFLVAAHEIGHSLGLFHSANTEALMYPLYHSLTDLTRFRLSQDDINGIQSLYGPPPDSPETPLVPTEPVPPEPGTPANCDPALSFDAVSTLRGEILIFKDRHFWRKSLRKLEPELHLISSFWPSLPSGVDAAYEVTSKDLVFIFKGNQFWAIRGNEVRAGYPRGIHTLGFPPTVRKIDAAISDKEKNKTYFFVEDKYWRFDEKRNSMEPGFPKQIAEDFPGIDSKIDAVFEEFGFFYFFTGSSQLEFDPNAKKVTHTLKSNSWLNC
Text: as §1, §2, §3, §4, §5
Recombinant Human CHO Stromelysin (MMP-3)
Recombinant Human CHO Pro-MMP-3: Human CHO pro-stromelysin-257 (pro-MMP-3) was expressed and purified as described by Housley, et al., J. Biol. Chem. 268, 4481, 1993.
Activation of Pro-MMP-3: Pro-MMP-3 at 1.72 μM (100 μg/mL) in 5 mM Tris at pH 7.5, 5 mM CaCl2, 25 mM NaCl, and 0.005% Brij-35 MMP-3) activation buffer) was activated by incubation with TPCK (N-tosyl-(L)-phenylalanine chloromethyl ketone) trypsin (1:100 w/w to pro-MMP-3) at 25° C. for 30 min. The reaction was stopped by addition of soybean trypsin inhibitor (SBTI; 5:1 w/w to trypsin concentration). This activation protocol results in the formation of 45 kDa active MMP-3, which still contains the C-terminal portion of the enzyme.
as §6, §7, §8, §9

[3] = target: T3, Human Recombinant Gelatinase A (MMP-2) (Homo sapiens, UniProt P08253); assay: P218 quenched fluorescence assay for MMP inhibition: MMP-2; type: biochemical
T3 sequence (P08253 110-660): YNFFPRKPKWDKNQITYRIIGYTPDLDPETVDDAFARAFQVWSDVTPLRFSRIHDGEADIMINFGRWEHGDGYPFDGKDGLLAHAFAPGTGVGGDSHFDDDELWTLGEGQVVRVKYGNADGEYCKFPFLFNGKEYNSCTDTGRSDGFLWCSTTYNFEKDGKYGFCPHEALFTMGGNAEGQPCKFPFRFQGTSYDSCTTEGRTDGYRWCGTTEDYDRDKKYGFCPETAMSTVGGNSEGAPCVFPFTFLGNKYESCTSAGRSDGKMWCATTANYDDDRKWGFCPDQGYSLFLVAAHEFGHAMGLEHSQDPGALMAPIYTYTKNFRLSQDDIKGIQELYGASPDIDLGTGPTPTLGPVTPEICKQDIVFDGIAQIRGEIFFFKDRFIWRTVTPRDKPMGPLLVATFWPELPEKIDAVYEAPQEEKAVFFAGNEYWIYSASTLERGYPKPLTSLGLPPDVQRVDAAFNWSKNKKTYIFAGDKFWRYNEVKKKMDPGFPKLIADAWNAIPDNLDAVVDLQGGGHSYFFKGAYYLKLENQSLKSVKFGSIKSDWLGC

[4] = Child, et al., J. Pharm. Sci. 66, 466, 1977; cited from earlier work
[5] = tested on: human colon tumor; details: given intraperitoneally; orthotopic model in nude mice; cited from earlier work
[6] = tested on: human ovarian carcinoma xenografts; details: given intraperitoneally; cited from earlier work
[7] = P218 substrate 6 μM, pH 6.5, 25 min at 37° C., read-out: MMP-2 Fluorogenic IC-50

SMILES	pIC50 [1]	pIC50 [2]	pIC50 [3, 7]	other results
CCCN(CC#Cc1ccc(-c2ccc(C(=O)CC(CCCc3ccccc3)C(=O)O)cc2)cc1)CCC (stereo not shown) [Compound V]	5.58	6.49	6.63	–
O=C(CC(CCCc1ccccc1)C(=O)O)c1ccc(-c2ccc(C#CCO)cc2)cc1 (racemic) [Compound I]	6.97	7.68	8.40	–
O=C(CC(C(=O)O)c1ccccc1)c1ccc(-c2ccccc2)cc1 (stereo not shown) [XLIX]	–	–	–	anti-inflammatory activity (in words) [4]: inactive
O=C(CC(CCN1C(=O)c2ccccc2C1=O)C(=O)O)c1ccc(-c2ccc(C#CCO)cc2)cc1 (stereo not shown) [Compound XVI]	8.70	8.40	–	pIC50 [3]: 9.00
O=C(O)CCC#Cc1ccc(-c2ccc(C(=O)CC(CCCc3ccccc3)C(=O)O)cc2)cc1 (stereo not drawn) [Compound X, 4'-(4-carboxy-1-butynyl)-λ-oxo-α-(3-phenylpropyl)-[1,1'-biphenyl]-4-butanoic acid]	–	6.69	6.97	MMP-9 Fluorogenic, I (percent inhibition) [1]: 27%
O=C(CC(CCCc1ccccc1)C(=O)O)c1ccc(-c2ccc(C#Cc3ccccc3)cc2)cc1 (stereo not drawn) [XIII, λ-oxo-4'-(phenylethynyl)-α-(3-phenylpropyl)-[1,1'-biphenyl]-4-butanoic acid]	–	6.39	6.61	–
O=C(CC(CCN1C(=O)c2ccccc2C1=O)C(=O)O)c1ccc(-c2ccc(C#CCOCc3ccccc3)cc2)cc1 (stereo not drawn) [Compound XV, 1,3-dihydro-1,3-dioxo-α-[2-oxo-2-[4'-[3(phenylmethoxy)-1-propynyl][1,1'-biphenyl]-4-yl]ethyl]-2H-isoindole-2-butanoic acid]	7.40	7.96	8.30	–
O=CCCCC#Cc1ccc(-c2ccc(C(=O)CC(CCCc3ccccc3)C(=O)O)cc2)cc1 (stereo not drawn) [Compound XI, λ-oxo-4'-(5-oxo-1-pentynyl)-α-(3-phenylpropyl)-[1,1'biphenyl]-4-butanoic acid]	–	5.76	6.22	MMP-9 Fluorogenic, I (percent inhibition) [1]: 24%
O=C(CC(CCCc1ccccc1)C(=O)O)c1ccc(-c2ccc(C#Cc3cccc(O)c3)cc2)cc1 (stereo not shown) [XIV]	–	6.90	7.07	MMP-9 Fluorogenic, I (percent inhibition) [1]: 46%
CCOC(=O)OCC#Cc1ccc(-c2ccc(C(=O)CC(CCCc3ccccc3)C(=O)O)cc2)cc1 (stereo not drawn) [Compound VII, 4'-[3-[(ethoxycarbonyl)oxy]-1-propynyl]-λ-oxo-α-(3-phenylpropyl)-[1,1'-biphenyl]-4-butanoic acid]	5.61	7.17	6.99	–
CC(=O)OCC#Cc1ccc(-c2ccc(C(=O)CC(CCCc3ccccc3)C(=O)O)cc2)cc1 (stereo not drawn) [Compound VI, 4'-[3-(acetyloxy)-1-propynyl]-λ-oxo-α-(3-phenylpropyl)-[1,1'-biphenyl]-4-butanoic acid]	6.08	7.44	7.85	–
O=C(CC(CCCc1ccccc1)C(=O)O)c1ccc(-c2ccc(C#CCCO)cc2)cc1 (stereo not drawn) [VIII, 4'-(4-hydroxy-1-butynyl)-λ-oxo-α-(3-phenylpropyl)-[1,1'-biphenyl]-4-butanoic acid]	6.91	7.49	8.22	–
CNC(=O)[C@H](Cc1ccccc1)NC(=O)[C@H](CC(C)C)[C@H](CSc1cccs1)C(=O)NO [batimastat]	–	–	–	human colon tumor growth and spread [5]: inhibits human colon tumor growth and spread; survival of mice bearing human ovarian carcinoma xenografts [6]: prolongs the survival of mice
CC(CC(=O)c1ccc(-c2ccccc2)cc1)C(=O)O (stereo not shown) [compound XLVII]	–	–	–	anti-inflammatory activity (in words) [4]: inactive
COCC#Cc1ccc(-c2ccc(C(=O)CC(CCCc3ccccc3)C(=O)O)cc2)cc1 (stereo not drawn) [IV, 4'-(3-methoxy-1-propynyl)-λ-oxo-α-(3-phenylpropyl)-[1,1'-biphenyl]-4-butanoic acid]	6.15	7.42	7.68	–
O=C(C[C@@H](CCCc1ccccc1)C(=O)O)c1ccc(-c2ccc(C#CCO)cc2)cc1 [III]	7.43	8.30	9.00	–
O=C(C[C@H](CCCc1ccccc1)C(=O)O)c1ccc(-c2ccc(C#CCO)cc2)cc1 [II, S-4'-(3-hydroxy-1-propynyl)-λ-oxo-α-(3-phenylpropyl)-[1,1'-biphenyl]-4-butanoic acid]	–	5.66	6.60	MMP-9 Fluorogenic, I (percent inhibition) [1]: 35%
O=C(CC(CCCc1ccccc1)C(=O)O)c1ccc(-c2ccc(C#CCCCCO)cc2)cc1 (stereo not shown) [XII]	6.21	7.25	7.44	–
CC(=O)OCCC#Cc1ccc(-c2ccc(C(=O)CC(CCCc3ccccc3)C(=O)O)cc2)cc1 (stereo not shown) [IX]	6.27	7.24	7.43	–
O=C(O)CC(C(=O)c1ccc(-c2ccccc2)cc1)c1ccccc1 (stereo not shown) [LXXVII]	–	–	–	anti-inflammatory activity (in words) [4]: inactive
